Test results from publication PMC7866175, “Genomics-Driven Activation of Silent Biosynthetic Gene Clusters in Burkholderia gladioli by Screening Recombineering System” (Molecules, 2021).
Read-outs that look alike come from different tables or passages of the source. *1 amine or outer side, *2 acyl side, *3 side chain or, on linkers, in order; H or OH if unused. Where a SMILES comes first, the peptide text is derived from it. [ ]: non-standard residue; d: D form. The star is where a group is joined. ξ: configuration not given here. Decanoyl(3ξ-OH) = CCCCCCCC(O)CC(=O)*; X1 = CC=C(N[*:1])C(=O)[*:2]

Tests used:
Type in all cases: cell-based
[1] = test system: Escherichia coli ATCC 35218; assay: Antibacterial activity assay; conditions: ATCC35218
[2] = test system: Pseudomonas aeruginosa ATCC 27853; assay: Antibacterial activity assay; conditions: ATCC27853; Gram-negative bacterium Pseudomonas aeruginosa ATCC 27853
[3] = test system: Staphylococcus aureus ATCC 29213; assay: Antibacterial activity assay; conditions: ATCC29213; Gram-positive bacterium Staphylococcus aureus ATCC 29213
[4] = test system: Bacillus subtilis ATCC 6633; assay: Antibacterial activity assay; conditions: ATCC6633; Gram-positive bacterium Bacillus subtilis ATCC 6633
[5] = test system: HCT116; assay: Cytotoxic activity assay; conditions: Homo sapiens, HCT-116, read-out: cytotoxic activity IC50, HCT116
[6] = test system: MCF-7; assay: Cytotoxic activity assay; conditions: human breast adenocarcinoma cells MCF7
[7] = test system: Hela; assay: Cytotoxic activity assay; conditions: human cervix epithelioid carcinoma Hela
[8] = test system: HepG-2; assay: Cytotoxic activity assay; conditions: HepG2; human hepatoma cell HepG-2
[9] = test system: A549; assay: Cytotoxic activity assay; conditions: human lung adenocarcinoma cell A549
[10] = test system: K562; assay: Cytotoxic activity assay; conditions: human hematological disease cells K562
[11] = Cytotoxic activity assay; conditions: human, normal cell line 293T
[12] = Gram-negative bacterium Escherichia coli ATCC 35218, read-out: MIC

| SMILES | MIC ([1]; Escherichia coli) [µM] | MIC [2] [µM] | MIC [3] [µM] | MIC [4] [µM] | IC50 [5] [µM] | IC50 [6] [µM] | IC50 [7] [µM] | IC50 [8] [µM] | IC50 [9] [µM] | IC50 [10] [µM] | IC50 [11] [µM] | MIC [1, 12] [µM] | IC50 ([11]; 293T cells (normal cell line)) [µM] |
| --- | --- | --- | --- | --- | --- | --- | --- | --- | --- | --- | --- | --- | --- |
| CC=C(NC(=O)CC(O)CCCCCCC)C(=O)N1CCCC1C(=O)NC(CCC(N)=O)C(=O)NC(C)C(=O)NC(C(=O)NC(Cc1ccccc1)C(=O)N1CCCC1C(=O)O)C(C)C (stereo not shown) [Compound 1, Burriogladiodin A] ({Decanoyl(3ξ-OH)}-[X1]PQAVFP-OH; configuration not given here) | > 100 | > 100 | > 100 | > 100 | > 20 | > 20 | > 20 | > 20 | > 20 | > 20 | 29.4 ± 0.85 | – | – |
| CC=C(NC(=O)CC(O)CCCCCCC)C(=O)N1CCCC1C(=O)NC(CCC(N)=O)C(=O)NC(C)C(=O)NC(C(=O)NC(Cc1ccccc1)C(=O)N1CCCC1C(=O)NC(C(=O)O)C(C)O)C(C)C (stereo not shown) [Compound 2, Burriogladiodin B] ({Decanoyl(3ξ-OH)}-[X1]PQAVFPT-OH; configuration not given here) | > 100 | > 100 | > 100 | > 100 | > 20 | > 20 | > 20 | > 20 | > 20 | > 20 | > 40 | – | – |
| CC=C(NC(=O)CC(O)CCCCCCC)C(=O)N1CCCC1C(=O)NC(CCC(N)=O)C(=O)NC(C)C(=O)NC(C(=O)NC(Cc1ccccc1)C(=O)O)C(C)C (stereo not shown) [Compound 5, Burriogladiodin E] ({Decanoyl(3ξ-OH)}-[X1]PQAVF-OH; configuration not given here) | > 100 | > 100 | > 100 | > 100 | > 20 | > 20 | > 20 | > 20 | > 20 | > 20 | 24.9 ± 0.96 | – | – |
| CC=C(NC(=O)CC(O)CCCCCCC)C(=O)N1CCCC1C(=O)NC(CCC(N)=O)C(=O)NC(C)C(=O)NC(C)C(=O)NC(Cc1ccccc1)C(=O)O (stereo not shown) [Compound 8, Burriogladiodin H] ({Decanoyl(3ξ-OH)}-[X1]PQAAF-OH; configuration not given here) | > 100 | > 100 | > 100 | > 100 | > 20 | > 20 | > 20 | > 20 | > 20 | > 20 | > 40 | – | – |
| CC=C(NC(=O)CCCCCCC)C(=O)NC(=CC)C(=O)NC(Cc1ccc(O)cc1)C(=O)NC(CC(C)C)C(=O)Nc1ccc(C(=O)NC(C(=O)O)C(C)O)cc1 (stereo not shown) [Compound 9, Haereogladiodin A] | – | > 100 | > 100 | > 100 | > 20 | > 20 | > 20 | > 20 | > 20 | > 20 | 36.1 ± 0.81 | > 100 | – |
| CC=C(NC(=O)CCCCCCC)C(=O)NC(=CC)C(=O)NC(Cc1ccc(O)cc1)C(=O)O (stereo not shown) [Compound 10, Haereogladiodin B] | – | > 100 | > 100 | > 100 | > 20 | > 20 | > 20 | > 20 | > 20 | > 20 | 33.9 ± 0.75 | > 100 | – |
| COc1cccc2c1C(=O)c1c(O)c3c(c(O)c1C2=O)C[C@@](O)(C(=O)CO)C[C@@H]3O[C@H]1C[C@H](N)[C@H](O)[C@H](C)O1 [adriamycin, reference compound] | – | – | – | – | 0.73 ± 0.05 | 0.86 ± 0.07 | 0.61 ± 0.07 | 0.68 ± 0.001 | 0.61 ± 0.03 | 0.57 ± 0.02 | – | – | 1.47 ± 0.15 |
